Measurements reported in US20260028352A1, “MACROCYCLIC IMIDAZO [1,2-B] PYRIDAZINE DERIVATIVE, PREPARATION METHOD THEREFOR, AND USE THEREOF” (SUZHOU LANGRUI BIOPHARMACEUTICAL CO., LTD., priority 2022, published 2026).

Assays:
[1] = biological target: TRKA^WT kinase (Homo sapiens (Human), UniProt P04629); assay: Inhibitory activity against TRKA WT kinase (Caliper mobility shift); format: biochemical; settings: in vitro kinase assay
Method: (§1) Kinase Assay Process: 1× Kinase buffer was prepared. […] The compounds were serially diluted into 10 concentrations ([…], 0.15, and 0.05 nM) using a Precision 3-fold dilution method. By using the Echo550 liquid handler, 250 nL of the 100-fold final concentration compound was transferred to an OptiPlate-384F plate. a 2.5× final concentration kinase solution was prepared using 1× Kinase buffer. 10 μL of the 2.5× final concentration kinase solution was added to the compound wells and the positive control wells, and 10 μL of 1× Kinase buffer was added to the negative control wells. The plate was centrifuged at 1000 rpm for 30 seconds, vortexed for mixing, and then incubated at room temperature for 10 minutes. A mixture of 5/3× final concentration of ATP and Kinase Substrate 22 was prepared using 1× Kinase buffer. 15 μL of the mixture of the 5/3× final concentration ATP and the substrate was added to initiate the reaction, the 384-well plate was centrifuged at 1000 rpm for 30 seconds, vortexed for mixing, and incubated at room temperature for the required time. 30 μL of the termination solution was added to stop the kinase reaction, the plate was centrifuged at 1000 rpm for 30 seconds, and vortexed for mixing. The conversion rate was measured using the Caliper EZ Reader.
(§2) Data Analysis: the inhibition rate was calculated as follows:
(§3) % Inhibition=(Conversion %_max−conversion %_sample)÷(Conversion %_max−conversion %_min)×100
(§4) Conversion %_sample is the conversion rate reading for the sample; Conversion %_min is the average value of the negative control wells, representing the conversion rate for wells without enzyme activity: Conversion %_max is the average value of the positive control wells, representing the conversion rate for wells without compound inhibition. A dose-response curve was fitted using the log concentration of the compound as the X-axis and the percentage inhibition as the Y-axis. The log(inhibitor) vs. response-variable slope of the GraphPad Prism 5 software was used to fit the dose-response curve, and the IC50 value for each compound was obtained. The calculation formula is:
(§5) Y=Bottom+(Top−Bottom)/(1+10^((Log IC50−X)*HillSlope)).
(§6) wherein X represents the concentration of the compound to be tested; Y represents the inhibition rate at the concentration X: Top refers to the maximum response: Bottom refers to the baseline response; HillSlope refers to the slope of the curve (i.e., the gradient).

[2] = biological target: TRKA^F589L kinase (Homo sapiens (Human), UniProt P04629, F589L); assay: Inhibitory activity against TRKA(F589L) kinase (Caliper mobility shift); format: biochemical; settings: in vitro kinase assay
Method: as §1, §2, §3, §4, §5, §6

[3] = system: Ba/F3-TPM3-NTRK1-G667C cells; assay: Growth inhibition of Ba/F3-TPM3-NTRK1-G667C cells (Cell Titer-Glo); format: cell-based; settings: 72 hours, CTG; read-out: inhibitory activity IC50 Ba/F3-TPM3-NTRK1-G667C
Outline: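 Ba/F3 cells were exposed for 72 hours to serially DMSO-diluted compound at a top final concentration of 10 μM. Viability was read by Cell Titer-Glo luminescence after the plate equilibrated 30 min at room temperature and was then shaken 1 hour in the dark at room temperature.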

[4] = system: Ba/F3-TPM3-NTRK1-G595R cells; assay: Growth inhibition of Ba/F3-TPM3-NTRK1-G595R cells (Cell Titer-Glo); format: cell-based; settings: 72 hours, CTG; read-out: inhibitory activity IC50 Ba/F3-TPM3-NTRK1-G595R
Method: (§7) Then the solutions were subjected to a gradient dilution with DMSO: a clean, sterile V-bottom 96-well microplate was placed in the biological safety cabinet. First, 4 μL of DMSO was added to well B2 and 10 μL of DMSO was added to wells B3-B11 respectively; Next, 6 μL of the 10 mM solution was added to well B2. The microplate was pipetted up and down 10 times for mixing. […] Mixing was performed by pipetting up and down 10 times. The solution was diluted in order until well B10. only DMSO was added to well B11 (no compound).
(§8) 6× Compound Solution Preparation (6-fold dilution, × represents dilution factor): (Initial final concentration: 10 μM), a clean, sterile V-bottom 96-well microplate was placed in the biological safety cabinet. 99 μL of cell culture medium was added to each well from B2 to G11. By using a 12-channel pipettor, 1 μL of the compound solution prepared in the previous step was added into the corresponding wells. The solutions were pipetted up and down 10 times to mix the solutions. The highest concentration of compound in this step was 60 μM.
(§9) Treatment of Cells: the above-prepared cell culture plate was taken out of the incubator. 20 μL of compound solution from each well was added to the corresponding cell culture wells. The lowest pipetting speed was used and touching the bottom of the plate was avoided. The culture plate was gently shaked to mix the compound solution, then the plate was returned to the incubator for further culture for 72 hours.
(§10) The highest treatment concentration of the compound was 10 μM. After 72 hours of treatment, the Cell Titer-Glo (CTG) assay was performed. First, the cell culture plate was removed from the CO2 incubator and allowed to stand at room temperature for 30 minutes to ensure uniform temperature of the plate. The pre-prepared Cell Titer-Glo reagent (following the manufacturer's instructions) was taken and allowed to stand at room temperature to thaw. 60 μL of Cell Titer-Glo reagent was added to each well containing cells. The cells were incubated on a horizontal shaker in a dark place at 225 rpm for 1 hour at room temperature. Then, a Tecan Spark microplate reader was used to read the plate using chemiluminescence according to the manufacturer's instructions.

[5] = system: Ba/F3-TPM3-NTRK1-WT cells; assay: Growth inhibition of Ba/F3-TPM3-NTRK1-WT cells (Cell Titer-Glo); format: cell-based; settings: 72 hours, CTG; read-out: inhibitory activity IC50 Ba/F3-TPM3-NTRK1-WT
Method: as §7, §8, §9, §10

Chain of TRKA^F589L kinase (P04629 33-796 F589L): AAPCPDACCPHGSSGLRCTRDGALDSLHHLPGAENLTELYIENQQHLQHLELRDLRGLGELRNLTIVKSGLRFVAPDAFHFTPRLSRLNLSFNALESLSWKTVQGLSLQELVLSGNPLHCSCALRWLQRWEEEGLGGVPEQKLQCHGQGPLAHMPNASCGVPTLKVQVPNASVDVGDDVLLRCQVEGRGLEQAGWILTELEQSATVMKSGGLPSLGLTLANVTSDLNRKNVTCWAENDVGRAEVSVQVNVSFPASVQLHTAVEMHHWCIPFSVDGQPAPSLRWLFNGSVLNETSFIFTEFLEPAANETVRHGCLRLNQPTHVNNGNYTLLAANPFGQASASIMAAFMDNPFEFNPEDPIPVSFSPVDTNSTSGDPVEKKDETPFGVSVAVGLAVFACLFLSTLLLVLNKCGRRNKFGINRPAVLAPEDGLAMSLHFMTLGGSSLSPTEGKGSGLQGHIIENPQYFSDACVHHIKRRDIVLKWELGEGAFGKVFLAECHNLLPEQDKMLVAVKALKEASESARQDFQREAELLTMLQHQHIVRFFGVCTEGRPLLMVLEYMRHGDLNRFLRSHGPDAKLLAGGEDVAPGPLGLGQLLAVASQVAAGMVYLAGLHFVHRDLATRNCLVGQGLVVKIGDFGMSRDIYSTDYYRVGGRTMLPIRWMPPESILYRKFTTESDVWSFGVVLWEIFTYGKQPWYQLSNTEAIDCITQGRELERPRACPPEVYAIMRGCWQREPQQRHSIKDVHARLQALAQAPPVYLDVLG
Chain of TRKA^WT kinase (P04629 33-796): as the sequence (P04629 33-796 F589L) above, with L557F counted along it

IC50 [1] [nM] | IC50 [2] [nM] | IC50 [3] [nM] | IC50 [4] [nM] | IC50 [5] [nM] | SMILES
< 3 | < 5 | < 100 | – | – | C[C@H]1Nc2ccc3ncc(n3n2)-c2cc(ccn2)COc2ccc(F)cc21 [Example I-14, (R)-(E)-5^4-fluoro-6-methyl-4-oxa-7-aza-1(3,6)-imidazo[1,2-b]pyridazina-2(2,4)-pyridina-5(1,2)-benzenacycloheptaphane]
< 3 | < 5 | < 100 | – | – | C[C@H]1Nc2ccc3ncc(n3n2)-c2cc(ccn2)COc2c(F)cc(F)cc21 [Example I-16, (R)-(E)-5^4,5^6-difluoro-6-methyl-4-oxa-7-aza-1(3,6)-imidazo[1,2-b]pyridazine-2(2,4)-pyridina-5(1,2)-benzenacycloheptaphane]
< 3 | < 5 | < 100 | – | – | C[C@H]1Nc2ccc3ncc(n3n2)-c2cc(ccn2)COc2ccccc21 [Example I-18, (R)-(E)-6-methyl-4-oxa-7-aza-1(3,6)-imidazo[1,2-b]pyridazine-2(2,4)-pyridina-5(1,2)-benzenacycloheptaphane]
< 3 | < 5 | < 100 | – | – | C[C@H]1Nc2ccc3ncc(n3n2)-c2cc(ccn2)COc2ncccc21 [Example I-20, (R)-(E)-6-methyl-4-oxa-7-aza-1(3,6)-imidazo[1,2-b]pyridazina-2(2,4), 5(2,3)-dipyridinacycloheptaphane]
< 3 | < 5 | < 100 | – | – | C[C@H]1Nc2ccc3ncc(n3n2)-c2cncc(c2)COc2ccc(F)cc21 [Example I-22, (R)-(E)-5^4-fluoro-6-methyl-4-oxa-7-aza-1(3,6)-imidazo[1,2-b]pyridazina-2(3,5)-pyridina-5(1,2)-benzenacycloheptaphane]
< 3 | < 5 | < 100 | – | – | C[C@H]1Nc2ccc3ncc(n3n2)-c2cc(ccn2)OCc2ncc(F)cc21 [Example I-24, (R)-(E)-5^5-fluoro-6-methyl-3-oxa-7-aza-1(3,6)-imidazo[1,2-b]pyridazina-2(2,4), 5(2,3)-dipyridinacycloheptaphane]
< 3 | < 5 | < 100 | – | – | C[C@H]1Nc2ccc3ncc(n3n2)-c2cc(ncn2)COc2ccccc21 [Example I-26, (R)-(E)-6-methyl-4-oxa-7-aza-1(3,6)-imidazo[1,2-b]pyridazina-2(4,6)-pyrimidina-5(1,2)-benzenacycloheptaphane]
< 3 | < 5 | < 100 | – | – | C[C@H]1Nc2ccc3ncc(n3n2)-c2cc(ccn2)CCOc2ccccc21 [Example I-28, (4R,E)-4-methyl-6-oxa-3-aza-2(3,6)-imidazo[1,2-b]pyridazina-1(2,4)-pyridina-5(1,2)-benzenacyclooctaphane]
< 3 | < 5 | < 100 | – | – | C[C@H]1Nc2ccc3ncc(n3n2)-c2cc(ccn2)OCc2ccc(F)cc21 [Example I-30, (R)-(E)-5^4-fluoro-6-methyl-3-oxa-7-aza-1(3,6)-imidazo[1,2-b]pyridazina-2(2,4)-pyridina-5(1,2)-benzenacycloheptaphane]
< 3 | < 5 | < 100 | – | – | Fc1ccc2c(c1)[C@H]1CCCN1c1ccc3ncc(n3n1)-c1cc(ccn1)CO2 [Example I-49, (14bR,E)-13-fluoro-14b,15,16,17-tetrahydro-9H-1,19-etheno-4,8-(metheno)benzo[b]imidazo[1,5-h]pyrrolo[2,1-d][1]oxa[5,7,8,11]tetraazacyclopentadecine]
– | – | 2.8 | 1.6 | 0.06 | Fc1cnc2c(c1)[C@H]1C[C@H](F)CN1c1ccc3ncc(n3n1)-c1cc(cnn1)CO2 [Example I-68, (14bR,16S,E)-13,16-difluoro-14b,15,16,17-tetrahydro-9H-1,19-etheno-4,8-(metheno)imidazo[5,1-h]pyrido[3,2-n]pyrrolo[1,2-l][1]oxa[5,6,9,10,12]pentaazacyclopentadecine]
– | – | 4.6 | 1.1 | 0.12 | Fc1ccc2c(c1)[C@H]1C[C@H](F)CN1c1ccc3ncc(n3n1)-c1cc(ncn1)CCO2 [Example I-70, (3^2R,3^4S,E)-3^4,4^5-difluoro-5-oxa-2(3,6)-imidazo[1,2-b]pyridazina-1(4,6)-pyrimidina-3(1,2)-pyrrolidina-4(1,2)-benzenacycloheptaphane]
– | – | 7.4 | 1.5 | 0.07 | Fc1cnc2c(c1)[C@H]1C[C@H](F)CN1c1ccc3ncc(n3n1)-c1cc(ncn1)CCO2 [Example I-72, (3^2R,3^4S,E)-3^4,4^5-difluoro-5-oxa-2(3,6)-imidazo[1,2-b]pyridazina-1(4,6)-pyrimidina-4(3,2)-pyridina-3(1,2)-pyrrolidinacycloheptaphane]
– | – | 13.9 | 2.3 | 0.25 | Fc1ccc2c(c1)[C@H]1C[C@H](F)CN1c1ccc3ncc(n3n1)-c1nccc(n1)CCO2 [Example I-86, (3^2R,3^4S,E)-3^4,4^5-difluoro-5-oxa-2(3,6)-imidazo[1,2-b]pyridazina-1(2,4)-pyrimidina-3(1,2)-pyrrolidina-4(1,2)-benzenacycloheptaphane]
– | – | 4.3 | 0.6 | 0.18 | Fc1ccc2c(c1)[C@H]1C[C@H](F)CN1c1ccc3ncc(n3n1)-c1cc(cnn1)CCO2 [Example I-92, (3^2R,3^4S,E)-3^4,4^5-difluoro-5-oxa-2(3,6)-imidazo[1,2-b]pyridazina-1(3,5)-pyridazina-3(1,2)-pyrrolidina-4(1,2)-benzenacycloheptaphane]
– | – | 2.5 | 1 | 0.09 | Fc1cnc2c(c1)[C@H]1C[C@H](F)CN1c1ccc3ncc(n3n1)-c1cc(cnn1)CCO2 [Example I-94, (3^2R,3^4S,E)-3^4,4^5-difluoro-5-oxa-2(3,6)-imidazo[1,2-b]pyridazina-1(3,5)-pyridazina-4(3,2)-pyridina-3(1,2)-pyrrolidinacycloheptaphane]
– | – | 3.7 | 1.4 | 0.11 | C[C@H]1Cc2ccnc(n2)-c2cnc3ccc(nn23)N2C[C@@H](F)C[C@@H]2c2cc(F)cnc2O1 [Example I-96, (3^2R,3^4S,6S,E)-3^4,4^5-difluoro-6-methyl-5-oxa-2(3,6)-imidazo[1,2-b]pyridazina-1(2,4)-pyrimidina-4(3,2)-pyridina-3(1,2)-pyrrolidinacycloheptaphane]
– | – | 169 | 10 | 3.07 | C[C@@H]1CCc2ncc(F)cc2[C@H]2CCCN2c2ccn3ncc(c3n2)C(=O)N1 [LOXO-195, reference compound]
